Experiments:
[1] = Cytotoxicity against mouse RCap cells assessed as reduction in cell viability measured after 72 hrs by MTT assay; assay type: functional, cell-based
PC-3 = assay: Cytotoxicity against human PC-3 cells assessed as reduction in cell viability measured after 72 hrs by MTT assay; assay type: functional, cell-based; settings: PC-3, 72 h
[2] = Cytotoxicity against human WI-38 cells assessed as reduction in cell viability measured after 72 hrs by MTT assay; assay type: toxicity, cell-based
[3] = Binding affinity to FABP5 (unknown origin); set-up: species or system Homo sapiens

Row | SMILES | IC50 [1] | IC50 (PC-3) | IC50 at 72 h [2] | Ki [3]
1 | COc1ccccc1[C@H]1[C@H](C(=O)O)[C@H](c2ccccc2OC)[C@H]1C(=O)Oc1cc(-c2ccc3c(c2)OCO3)ccc1-c1cncnc1 | 20.5 µM | 10.6 µM | 66.4 µM | 640 nM
2 | O=C(O)[C@H]1[C@H](c2ccccc2)[C@H](C(=O)Oc2cc(-c3ccc4c(c3)OCO4)ccc2Br)[C@H]1c1ccccc1 | 14.8 µM | 9.36 µM | 24.8 µM | 370 nM
3 | C#Cc1ccc(-c2ccc3c(c2)OCO3)cc1OC(=O)[C@H]1[C@@H](c2ccccc2OC)[C@H](C(=O)O)[C@@H]1c1ccccc1OC | 14.8 µM | 11.4 µM | 72.1 µM | 1210 nM
4 | O=C(O)[C@H]1[C@H](c2ccccc2)[C@@H](C(=O)Oc2cc(-c3ccc4c(c3)OCCO4)cc3c2OCCO3)[C@H]1c1ccccc1 |  | 20.7 µM |  | 3500 nM
5 | COc1ccccc1[C@H]1[C@H](C(=O)O)[C@H](c2ccccc2OC)[C@@H]1C(=O)Oc1ccc(OC)c2ccccc12 |  | 19.6 µM |  | 26600 nM
6 | COc1ccccc1[C@H]1[C@H](C(=O)O)[C@H](c2ccccc2OC)[C@H]1C(=O)OCCc1ccccc1-c1ccccc1 | 14.2 µM | 11.9 µM | 51 µM | 510 nM
7 | COc1ccccc1[C@H]1[C@H](C(=O)O)[C@H](c2ccccc2OC)[C@@H]1C(=O)Oc1cccc2ccccc12 |  | 25.5 µM |  | 
8 | COc1ccccc1[C@H]1[C@H](C(=O)O)[C@H](c2ccccc2OC)[C@H]1C(=O)Oc1cc(-c2ccc3c(c2)OCO3)ccc1-c1cnn(C)c1 | 7.94 µM | 5.71 µM | 29.8 µM | 540 nM
9 | COc1ccccc1[C@H]1[C@H](C(=O)O)[C@H](c2ccccc2OC)[C@H]1C(=O)Oc1cc(-c2ccc3c(c2)OCO3)ccc1CC#N | 20.7 µM | 12.5 µM | 29.8 µM | 580 nM
10 | O=C1Cc2ccc(-c3ccccc3OC(=O)[C@H]3[C@@H](c4ccccc4)[C@H](C(=O)O)[C@@H]3c3ccccc3)cc2N1 |  | 63.9 µM |  | 290 nM
11 | O=C(O)[C@H]1[C@H](c2ccccc2)[C@H](C(=O)OC2Cc3ccccc3C2)[C@H]1c1ccccc1 |  | 37.6 µM |  | 
12 | O=C1CCc2cc(-c3cccc(OC(=O)[C@H]4[C@@H](c5ccccc5)[C@@H](C(=O)O)[C@@H]4c4ccccc4)c3)ccc2N1 | 15.6 µM | 13.1 µM | 77 µM | 7590 nM
13 | COc1ccccc1[C@H]1[C@H](C(=O)O)[C@H](c2ccccc2OC)[C@H]1C(=O)Oc1ccccc1-c1ccc2c(c1)OCCO2 |  | 17.8 µM |  | 2810 nM
14 | COc1ccccc1[C@H]1[C@H](C(=O)O)[C@H](c2ccccc2OC)[C@H]1C(=O)Oc1cc(-c2ccc(C#N)cc2)ccc1CC#N | 12.4 µM | 6.39 µM | 25.4 µM | 770 nM
15 | Cn1cc(-c2ccc(-c3ccc4c(c3)OCO4)cc2OC(=O)[C@H]2[C@@H](c3ccccc3)[C@H](C(=O)O)[C@@H]2c2ccccc2)cn1 | 8.82 µM | 9.66 µM | 24.1 µM | 290 nM
16 | COc1ccccc1[C@H]1[C@H](C(=O)O)[C@H](c2ccccc2OC)[C@H]1C(=O)OCC1(F)c2ccccc2-c2ccccc21 | 13 µM | 11.8 µM | 55.6 µM | 1830 nM
17 | O=C(O)[C@H]1[C@H](c2ccccc2)[C@H](C(=O)Oc2ccccc2-c2ccccc2)[C@H]1c1ccccc1 |  | 16.2 µM |  | 
18 | COc1ccccc1[C@H]1[C@H](C(=O)O)[C@H](c2ccccc2OC)[C@@H]1C(=O)Oc1cccc(-c2cccc3c2OCO3)c1 | 29 µM | 15.7 µM | 49 µM | 1260 nM
19 | COc1ccccc1[C@H]1[C@H](C(=O)O)[C@H](c2ccccc2OC)[C@H]1C(=O)Oc1ccccc1-c1ccccc1 |  | 19.8 µM |  | 1590 nM
20 | COc1ccccc1[C@H]1[C@H](C(=O)O)[C@H](c2ccccc2OC)[C@H]1C(=O)Oc1cccc(-c2cccc3c2OCO3)c1 | 19.5 µM | 12.4 µM | 35.1 µM | 410 nM
21 | COc1ccccc1[C@H]1[C@H](C(=O)O)[C@H](c2ccccc2OC)[C@H]1C(=O)Oc1cccc(-c2ccc(F)cc2)c1 | 12.3 µM | 10.8 µM | 29.2 µM | 1030 nM
22 | COc1ccccc1[C@H]1[C@H](C(=O)O)[C@H](c2ccccc2OC)[C@@H]1C(=O)Oc1cccc(-c2ccc(F)cc2)c1 | 19 µM | 14.6 µM | 57.5 µM | 1770 nM
23 | N#CCc1ccc(-c2ccc3c(c2)OCO3)cc1OC(=O)[C@H]1[C@@H](c2ccccc2)[C@H](C(=O)O)[C@@H]1c1ccccc1 |  | 13 µM | 46.3 µM | 640 nM
24 | C#Cc1ccc(-c2ccc(C#N)cc2)cc1OC(=O)[C@H]1[C@@H](c2ccccc2OC)[C@H](C(=O)O)[C@@H]1c1ccccc1OC | 17.4 µM | 8.89 µM | > 200 µM | 1020 nM
25 | N#CCc1ccc(-c2ccccc2)cc1OC(=O)[C@H]1[C@@H](c2ccccc2)[C@@H](C(=O)O)[C@@H]1c1ccccc1 | 30.1 µM | 12.3 µM | 55.2 µM | 2370 nM
26 | N#CCc1ccc(-c2ccc3c(c2)OCO3)cc1OC(=O)[C@H]1[C@@H](c2ccccc2)[C@@H](C(=O)O)[C@@H]1c1ccccc1 |  | 12.8 µM | 66.3 µM | 1420 nM

Row | SMILES | IC50 [1] | IC50 (PC-3) | IC50 at 72 h [2] | Ki [3]
27 | O=C(O)[C@H]1[C@H](c2ccccc2)[C@H](C(=O)Oc2cccc(C3=CCOCC3)c2)[C@H]1c1ccccc1 |  | 52 µM |  | 1750 nM
28 | COc1ccccc1[C@H]1[C@H](C(=O)O)[C@H](c2ccccc2OC)[C@H]1C(=O)Oc1cccc(-c2ccc(C#N)cc2)c1 | 19.1 µM | 8.17 µM | 26.1 µM | 1740 nM
29 | O=C(O)[C@H]1[C@H](c2ccccc2)[C@@H](C(=O)Oc2cc(-c3ccc4c(c3)OCO4)ccc2Br)[C@H]1c1ccccc1 | 9.98 µM | 7.72 µM | 25.9 µM | 890 nM
30 | COc1ccccc1[C@H]1[C@H](C(=O)O)[C@H](c2ccccc2OC)[C@H]1C(=O)Oc1cc(-c2ccc3c(c2)OCO3)ccc1Br | 8.48 µM | 10.4 µM | 15.6 µM | 350 nM
31 | O=C(O)[C@H]1[C@H](c2ccccc2)[C@H](C(=O)OCc2cccc3ccccc23)[C@H]1c1ccccc1 |  | 19.1 µM |  | 2640 nM
32 | O=C1Cc2cc(-c3cccc(OC(=O)[C@H]4[C@@H](c5ccccc5)[C@@H](C(=O)O)[C@@H]4c4ccccc4)c3)ccc2N1 |  | 20 µM |  | 2210 nM
33 | O=C(O)[C@H]1[C@H](c2ccccc2)[C@H](C(=O)Oc2cccc(-c3ccc4c(c3)OCCO4)c2)[C@H]1c1ccccc1 | 14.5 µM | 13.1 µM | 66.5 µM | 660 nM
34 | COc1ccccc1[C@H]1[C@H](C(=O)O)[C@H](c2ccccc2OC)[C@H]1C(=O)Oc1cc(-c2ccccc2)ccc1CC#N | 8.31 µM | 7.31 µM | 24.4 µM | 810 nM
35 | N#Cc1ccc(-c2ccccc2OC(=O)[C@H]2[C@@H](c3ccccc3)[C@@H](C(=O)O)[C@@H]2c2ccccc2)cc1 |  | 20.5 µM |  | 1390 nM
36 | O=C(O)[C@H]1[C@H](c2ccccc2)[C@H](C(=O)Oc2cccc(-c3ccc(O)c(O)c3)c2)[C@H]1c1ccccc1 |  | 52.9 µM |  | 1250 nM
37 | O=C(O)[C@H]1[C@H](c2ccccc2)[C@H](C(=O)Oc2cc(-c3ccc4c(c3)OCCO4)cc3c2OCCO3)[C@H]1c1ccccc1 | 13.5 µM | 11.8 µM | 68.5 µM | 1150 nM
38 | O=C1CCc2cc(-c3cccc(OC(=O)[C@H]4[C@@H](c5ccccc5)[C@H](C(=O)O)[C@@H]4c4ccccc4)c3)ccc2N1 | 12.6 µM | 11.4 µM | 42.8 µM | 740 nM
39 | O=C(O)[C@@H]1[C@@H](c2ccccc2)[C@H](C(=O)Oc2cccc3ccccc23)[C@H]1c1ccccc1 |  | 23.8 µM |  | 
40 | O=C(O)[C@H]1[C@H](c2ccccc2)[C@H](C(=O)Oc2ccc3cc(-c4cncnc4)ccc3c2)[C@H]1c1ccccc1 | 18.7 µM | 12.1 µM | 91.9 µM | 
41 | COc1ccccc1[C@H]1[C@H](C(=O)O)[C@H](c2ccccc2OC)[C@H]1C(=O)OC1Cc2ccccc2C1 |  | 16.5 µM |  | 
42 | CC(=O)N1CC=C(c2cccc(OC(=O)[C@H]3[C@@H](c4ccccc4)[C@@H](C(=O)O)[C@@H]3c3ccccc3)c2)CC1 |  | 67.4 µM |  | 28900 nM
43 | O=C(O)[C@@H]1[C@@H](c2ccccc2)[C@H](C(=O)OCc2ccccc2-c2ccccc2)[C@H]1c1ccccc1 |  | 22.1 µM |  | 1650 nM
44 | COc1ccccc1[C@H]1[C@H](C(=O)O)[C@H](c2ccccc2OC)[C@H]1C(=O)Oc1cc(-c2ccc(C#N)cc2)ccc1-c1cncnc1 |  | 14.9 µM |  | 380 nM
45 | COc1ccccc1[C@H]1[C@H](C(=O)O)[C@H](c2ccccc2OC)[C@H]1C(=O)Oc1cccc(-c2ccc(O)c(O)c2)c1 |  | 40.1 µM |  | 1250 nM
46 | COc1ccccc1[C@H]1[C@H](C(=O)O)[C@H](c2ccccc2OC)[C@H]1C(=O)Oc1ccccc1-c1ccc2c(c1)OCO2 |  | 19.9 µM |  | 1590 nM
47 | O=C(O)[C@H]1[C@H](c2ccccc2)[C@H](C(=O)Oc2cc(-c3ccc4c(c3)OCO4)ccc2-c2cncnc2)[C@H]1c1ccccc1 | 30.2 µM | 12.5 µM | 95.5 µM | 
48 | O=C(O)[C@H]1[C@H](c2ccccc2)[C@@H](C(=O)Oc2cc(-c3ccc4c(c3)OCO4)ccc2-c2cncnc2)[C@H]1c1ccccc1 | 2.92 µM | 5.88 µM | 31.5 µM | 
49 | COc1ccccc1[C@H]1[C@H](C(=O)O)[C@H](c2ccccc2OC)[C@H]1C(=O)Oc1cccc(-c2ccc3c(c2)NC(=O)C3)c1 |  | 16.2 µM |  | 1060 nM
50 | N#Cc1ccc(-c2ccc3c(c2)OCCO3)cc1OC(=O)[C@H]1[C@@H](c2ccccc2)[C@H](C(=O)O)[C@@H]1c1ccccc1 |  | 15.1 µM |  | 640 nM
51 | C#Cc1ccc(-c2ccc3c(c2)OCO3)cc1OC(=O)[C@H]1[C@@H](c2ccccc2OC)[C@@H](C(=O)O)[C@@H]1c1ccccc1OC |  | 21.8 µM |  | 1680 nM
